According to PMC8935241, “Ebselen enhances insulin sensitivity and decreases oxidative stress by inhibiting SHIP2 and protects from inflammation in diabetic mice” (International Journal of Biological Sciences, 2022):

What was measured:
[1] = biological target: T1, SHIP1 (Src homology 2 domain-containing inositol-5-phosphatase 1) (Homo sapiens, UniProt Q92835); assay: malachite green phosphate assay with PI([…])P3 diC8 on recombinant phosphatase domain; type: biochemical
T1 construct: gene INPP5D; Recombinant His-tagged human SHIP1 phosphatase domain
T1 sequence (Q92835 399-715 limits assumed): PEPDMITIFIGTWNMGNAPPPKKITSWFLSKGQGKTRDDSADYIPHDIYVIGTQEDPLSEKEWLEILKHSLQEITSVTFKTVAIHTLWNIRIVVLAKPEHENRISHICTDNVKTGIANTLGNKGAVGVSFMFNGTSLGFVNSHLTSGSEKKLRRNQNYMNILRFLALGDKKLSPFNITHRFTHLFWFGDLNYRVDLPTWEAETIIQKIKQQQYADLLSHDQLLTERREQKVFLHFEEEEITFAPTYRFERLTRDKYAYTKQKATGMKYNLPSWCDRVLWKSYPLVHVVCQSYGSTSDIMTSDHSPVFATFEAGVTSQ

[2] = biological target: T2, SHIP2 (Src homology 2 domain-containing inositol-5-phosphatase 2) (Homo sapiens, UniProt O15357); assay: as above; type: biochemical
T2 construct: gene INPPL1; Recombinant His-tagged human SHIP2 phosphatase domain
T2 sequence (O15357 419-732 limits assumed): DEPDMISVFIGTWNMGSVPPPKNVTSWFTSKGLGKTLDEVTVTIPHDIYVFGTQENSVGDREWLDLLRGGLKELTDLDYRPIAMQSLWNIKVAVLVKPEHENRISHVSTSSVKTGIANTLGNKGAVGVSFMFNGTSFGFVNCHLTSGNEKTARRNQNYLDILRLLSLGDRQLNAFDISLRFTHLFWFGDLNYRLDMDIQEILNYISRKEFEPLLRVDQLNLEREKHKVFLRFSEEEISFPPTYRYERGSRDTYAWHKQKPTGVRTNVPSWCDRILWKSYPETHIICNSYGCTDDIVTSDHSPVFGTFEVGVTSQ

O=c1c2ccccc2[se]n1-c1ccccc1 [ebselen]
IC50 [1]: 1810 nM | IC50 [2]: 480 nM
